From paper PMC12300679, “Taurine-Based Hybrid Drugs as Potential Anticancer Therapeutic Agents: In Vitro, In Vivo Evaluations” (Pharmaceuticals, 2025) come the findings set out here.

The subject of data set [1] is HuTu 80 human duodenal adenocarcinoma cells. The experiment in a line: MTT cytotoxicity assay, HuTu 80. Format: cell-based. To be noted: for IC50: Homo sapiens, HuTu80, MTT, tested at 1–200 µM, three independent experiments; for SI (selectivity index) HuTu 80: HuTu 80 versus normal WI38 cells. A general note: Formazan colour is commonly taken as a measure of viable cells.

The subject of data set [2] is M-HeLa human cervix carcinoma cells. Briefly: MTT cytotoxicity assay, M-HeLa. To be noted: for IC50: Homo sapiens, M-HeLa, tested at 1–200 µM, three independent experiments; for IC50 / cytotoxicity against M-HeLa (in words): MTT; for SI (selectivity index) M-HeLa: M-HeLa versus normal WI38 cells. Format: cell-based.
In data set [3] the test system is WI38 human fibroblast cell line. The experiment in a line: MTT cytotoxicity assay, normal WI38 cells. Format: cell-based. Particulars: WI-38, tested at 1–200 µM, three independent experiments.
Data set [4] has as its system HL-60 human promyelocytic leukemia cells. The experiment in a line: MTT cytotoxicity assay, HL-60. Format: cell-based. Particulars: for IC50: Homo sapiens, HL-60, MTT, tested at 1–200 µM, three independent experiments.
Data set [5] relates to RPMI 1788 human healthy donor peripheral blood leukocytes. The experiment in a line: MTT cytotoxicity assay, normal RPMI 1788 cells. Format: cell-based. To be noted: tested at 1–200 µM, three independent experiments, read-out: IC50 RPMI 1788 (normal cell line).
The next data set has as its system lymphatic leukemia P388. Briefly: Antitumor activity, syngeneic lymphatic leukemia P388 in BDF1 mice. To be noted: for ILS / MST ± SD: i.p. days 1, 5, 9. Format: in vivo, mouse. As for the experimental part: At the next stage, we evaluated them in vivo using syngeneic mouse leukosis P388, which plays an important role in the screening of potential antitumor agents. The antitumor effect of the synthesized compounds was evaluated according to the increase in the average lifespan (ILS, %) of tumor-bearing animals. Due to the fact that physiologically relevant solvent, such as water or physiological solution [49], can be used as a solvent for parenteral administration of substances, we chose only water-soluble compounds 4o–r for the in vivo study.
As model tumors for the determination of antitumor activity of phosphorus-containing derivatives of pyrrolidine, the strain of lymphatic leukemia P388 was chosen. Lymphatic leukemia P388 was transplanted into hybrid mice of the BDF1 line intraperitoneally in accordance with the standard procedure. The inoculum contained 10^6 tumor cells in isotonic solution of NaCl. […] In each experiment, the control group was represented by the cohort of animals with tumors not treated with the compounds. Each group consisted of six mice. The animals were inspected daily over at least 60 days. The effectiveness of therapy was evaluated by the number of surviving animals, as well as by the increase in the average lifespan (ILS%), which was evaluated as the percentage of the mean survival time (MST) of the treated group (t) as compared to the control group (c): […].

Setting [6] is: dose 12 (table prints no unit; b71 mg/kg).
Setting [7] is: dose 17 (table prints no unit; b71 mg/kg).
[8] abbreviates: dose 26 (table prints no unit; b71 mg/kg).
Where [9] appears, read: dose 37 (table prints no unit; b71 mg/kg).
[10] abbreviates: dose 55 (table prints no unit; b71 mg/kg).

As usually defined, the IC50 is the concentration that inhibits the measured activity by half. In the case of `O=c1[nH]cc(F)c(=O)[nH]1` [5-Fluorouracil, reference compound], the IC50 in data set [1] stood at 65.2 ± 5.5 µM; in data set [2], 75.6 ± 6.1 µM; in data set [3], 62 ± 4.8 µM. The “SI (selectivity index) HuTu 80” value in data set [1] is on record as 1. Moreover, in data set [2], the “SI (selectivity index) M-HeLa” value is reported as “- ((-)—no selectivity)”.
With `O=C1CCN(c2ccccc2)N1C1CCCN1S(=O)(=O)CCN1CCCCC1` (stereo not drawn) [Compound 4b, 1-Phenyl-2-(1-((2-(piperidin-1-yl)ethyl)sulfonyl)pyrrolidin-2-yl)pyrazolidin-3-one], the IC50 in data set [1] was greater than 100 µM; in data set [2], 87 ± 6.8 µM; in data set [3] it was 88.3 ± 7.1 µM. For the same molecule, the “SI (selectivity index) HuTu 80” value in data set [1] is “- ((-)—no selectivity)”. Further, the “SI (selectivity index) M-HeLa” value in data set [2] is listed as 1.
For `Nc1ncnc2c1ncn2CCS(=O)(=O)N1CCCC1N1C(=O)CCN1c1ccccc1` (stereo not drawn) [Compound 4c, 2-(1-((2-(6-Amino-9H-purin-9-yl)ethyl)sulfonyl)pyrrolidin-2-yl)-1-phenylpyrazolidin-3-one], in data set [1], the IC50 was greater than 100 µM and the “SI (selectivity index) HuTu 80” value is “- ((-)—no selectivity)”. In addition, in data set [2], the IC50 is greater than 100 µM and the “SI (selectivity index) M-HeLa” value is reported as “- ((-)—no selectivity)”. The molecule further had an IC50 in data set [3] of 100 µM.
In turn, `O=C(O)c1cn(C2CC2)c2cc(N3CCN(CCS(=O)(=O)N4CCCC4N4C(=O)CCN4c4ccccc4)CC3)c(F)cc2c1=O` (stereo not drawn) [Compound 4l, 1-Cyclopropyl-6-fluoro-4-oxo-7-(4-(2-((2-(5-oxo-2-phenylpyrazolidin-1-yl)pyrrolidin-1-yl)sulfonyl)ethyl)piperazin-1-yl)-1,4-dihydroquinoline-3-carboxylic acid] registered an IC50 in data set [1] greater than 100 µM. Also, in data set [2], the midpoint of inhibition, the IC50, lay at 85.4 ± 7.5 µM; the “SI (selectivity index) M-HeLa” value is reported as 1.8; the “cytotoxicity against M-HeLa (in words)” value was “moderate cytotoxicity”. In addition, in data set [3], the IC50 stood at 154 ± 12 µM.
With `Cc1c(C2CCCN2S(=O)(=O)CCNCC(=O)O)c(=O)n(-c2ccccc2)n1C` (stereo not drawn) [Compound 4m, (2-((2-(1,5-Dimethyl-3-oxo-2-phenyl-2,3-dihydro-1H-pyrazol-4-yl)pyrrolidin-1-yl)sulfonyl)ethyl)glycine], the IC50 in data set [1] is 87 ± 7 µM; in data set [2], greater than 100 µM; in data set [3], greater than 100 µM. Moreover, the “SI (selectivity index) HuTu 80” value in data set [1] was greater than 1.1.
For `CCN(CC)CCS(=O)(=O)N1CCCC1P(=O)(c1ccccc1)c1ccccc1.Cl` (stereo not drawn) [Compound 4o, 2-((2-(Diphenylphosphoryl)pyrrolidin-1-yl)sulfonyl)-N,N-diethylethanaminium chloride], the IC50 in data set [4] was greater than 100 µM; in data set [1] it was greater than 100 µM; in data set [5], greater than 100 µM; in data set [2], 56.7 ± 4.8 µM; in data set [3], 84.3 ± 7.2 µM. Also, the “SI (selectivity index) HuTu 80” value in data set [1] is recorded as “- ((-)—no selectivity)”. Further, the ILS in the data set with lymphatic leukemia P388 (setting [6]) is listed as 7%; with lymphatic leukemia P388 (setting [7]), −5%; in the data set on lymphatic leukemia P388 (setting [8]), 17%; in the data set on lymphatic leukemia P388 (setting [9]) it was 7%; in the data set on lymphatic leukemia P388 (setting [10]), 5%. Besides, the “MST ± SD” value was 10.7 ± 1.0 days in the data set on lymphatic leukemia P388 (setting [6]); 9.5 ± 0.8 days with lymphatic leukemia P388 (setting [7]); 11.7 ± 1.9 days in the data set on lymphatic leukemia P388 (setting [8]); 10.7 ± 0.9 days in the data set with lymphatic leukemia P388 (setting [9]); 10.5 ± 1.2 days with lymphatic leukemia P388 (setting [10]). In the data set with lymphatic leukemia P388 (doses under study, i.p.), the “antileukemia / antitumor effect (in words)” value is on record as “did not display antitumor effect”. Besides, in data set [2], the “SI (selectivity index) M-HeLa” value is 1.5. Besides, in data set [2], the “cytotoxicity against M-HeLa (in words)” value is on record as “moderate cytotoxicity”.
With `Cl.O=P(c1ccccc1)(c1ccccc1)C1CCCN1S(=O)(=O)CCN1CCOCC1` (stereo not drawn) [Compound 4s, 4-(2-((2-(Diphenylphosphoryl)pyrrolidin-1-yl)sulfonyl)ethyl)morpholin-4-ium chloride], the IC50 in data set [4] was greater than 100 µM; in data set [1] it was greater than 100 µM; in data set [5], greater than 100 µM; in data set [2], 78.4 ± 6.6 µM; in data set [3] it was 91.8 ± 8.4 µM. Moreover, in data set [1], the “SI (selectivity index) HuTu 80” value is reported as “- ((-)—no selectivity)”. In data set [2], the “SI (selectivity index) M-HeLa” value stood at 1.2.
With `Nc1ncnc2c1ncn2CCS(=O)(=O)N1CCCC1P(=O)(c1ccccc1)c1ccccc1` (stereo not drawn) [Compound 4u, (1-((2-(6-Amino-9H-purin-9-yl)ethyl)sulfonyl)pyrrolidin-2-yl)diphenylphosphine oxide], the IC50 in data set [1], in data set [2] and in data set [3] was greater than 100 µM throughout.
Consider `O=C(O)CNCCS(=O)(=O)N1CCCC1P(=O)(c1ccccc1)c1ccccc1` (stereo not drawn) [Compound 4v, 2-((2-((2-(Diphenylphosphoryl)pyrrolidin-1-yl)sulfonyl)ethyl)amino)acetic acid], for which the IC50 in data set [1] is greater than 100 µM; in data set [2] it was 96.2 ± 8.4 µM; in data set [3], 211 ± 17 µM. The “SI (selectivity index) M-HeLa” value in data set [2] came to 2.2.
On to `O=C(O)[C@@H](NCCS(=O)(=O)N1CCCC1P(=O)(c1ccccc1)c1ccccc1)c1c[nH]c2ccccc12` (stereo partly drawn) [Compound 4x, (2S)-2-((2-((2-(Diphenylphosphoryl)pyrrolidin-1-yl)sulfonyl)ethyl)amino)-2-(1H-indol-3-yl)acetic acid], for which the IC50 was greater than 100 µM in data set [1], 98.2 ± 8.3 µM in data set [2] and 128 ± 10 µM in data set [3]. Moreover, the “SI (selectivity index) M-HeLa” value in data set [2] is listed as 1.3.
On to `O=P(c1ccccc1)(c1ccccc1)C1CCCN1S(=O)(=O)CCNCCS(=O)(=O)O` (stereo not drawn) [Compound 4y, 2-((2-((2-(Diphenylphosphoryl)pyrrolidin-1-yl)sulfonyl)ethyl)amino)ethane-1-sulfonic acid], for which, in data set [1], the IC50 was 100 ± 9.2 µM and the “SI (selectivity index) HuTu 80” value turned out to be 1.2. Moreover, in data set [2], the IC50 was 62.5 ± 5.3 µM, the “SI (selectivity index) M-HeLa” value was 1.9 and the “cytotoxicity against M-HeLa (in words)” value is “moderate cytotoxicity”. The IC50 in data set [3] is 120 ± 9.3 µM.
On to `O=C(O)c1cn(C2CC2)c2cc(N3CCN(CCS(=O)(=O)N4CCCC4P(=O)(c4ccccc4)c4ccccc4)CC3)c(F)cc2c1=O` (stereo not drawn) [Compound 4z, 1-Cyclopropyl-7-(4-(2-((2-(diphenylphosphoryl)pyrrolidin-1-yl)sulfonyl)ethyl)piperazin-1-yl)-6-fluoro-4-oxo-1,4-dihydroquinoline-3-carboxylic acid], for which, in data set [1], the 50% inhibitory concentration (IC50) was 64.6 ± 5.1 µM and the “SI (selectivity index) HuTu 80” value stood at 1.9. Moreover, in data set [2], the IC50 amounted to 85.9 ± 8.2 µM and the “SI (selectivity index) M-HeLa” value was determined as 1.4. Besides, the IC50 in data set [3] was found to be 123 ± 9.6 µM.
On to `COc1cccc2c1C(=O)c1c(O)c3c(c(O)c1C2=O)C[C@@](O)(C(=O)CO)C[C@@H]3O[C@H]1C[C@H](N)[C@H](O)[C@H](C)O1` [Doxorubicin, reference compound], for which, in data set [4] (HL-60 versus normal RPMI 1788 leukocytes), the “SI (selectivity index) HL-60” value stood at 1.1. The IC50 in data set [4] was 3 ± 4.7 µM; in data set [5] it was 3.3 ± 6.6 µM.
